In patent publication US12370235B2, “Synthetic, non-natural antimicrobial peptides inspired by Staphylococcus auricularis delta toxin” (University of Saskatchewan, priority 2021, dated 2025):
Ends that are not written are not given here.

Columns and labels:
[1] = Circular dichroism spectroscopy; type: physicochemical; conditions: CD, 50% (v/v) TFE
From the text: The δ-toxins and the PSMs are characterized as α-helical peptides that form amyloid fibers^48. Although the propensity of individual peptides to form amyloids is correlated to their cytotoxicity^49, the amyloid form is not directly implicated in cell membrane disruption^50. […] CD spectroscopy was used to investigate the secondary structure of a subset of peptides within the collection (FIG. 4A, Table 5). The STIP variants adopted α-helical forms in 50% (v/v) trifluoroethanol (TFE), though unlike the full-length S. auricularis δ-toxin, they were unstructured in water. […] Specifically, peptides characterized by the greatest and least α-helical content in TFE had MICs above the highest tested threshold.
Circular dichroism spectroscopy. Peptides were dissolved in water at concentrations between 0.3 and 0.5 mg/mL. CD spectra were recorded on an Applied Photophysics Chirascan Plus CD spectrophotometer at room temperature in a 0.1 cm path-length quartz cuvette. Spectra were recorded from 180 to 260 nm.

[2] = test system: S. aureus ATCC 33592 (MRSA SCCmec type III); assay: MIC, broth dilution; type: cell-based, Staphylococcus aureus; conditions: Table 5; STIP3 variants, highest concentration 100 μg/mL
How it was run: (§1)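 MIC defined as the lowest peptide level giving no growth after overnight standing incubation at 37° C. Bacteria at OD 6×10^−4 in cation-adjusted MH broth met 2-fold serial peptide dilutions; peptide purity 95%.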

[3] = test system: S. aureus ATCC 29213; assay: MIC, broth dilution; type: cell-based, Staphylococcus aureus; conditions: Table 5; STIP3 variants, highest concentration 100 μg/mL
How it was run: as §1

[4] = test system: S. aureus / MRSA (ATCC MP-2 panel); type: cell-based, Staphylococcus aureus; conditions: for inhibition of S. aureus: MIC screen, in words
Description: In order to begin to characterize STIP3-1 and potential sites amenable to modification, an alanine scanning experiment was performed. A total of 16 peptides with single alanine substitutions were assessed to inform on the importance of individual residues to antimicrobial activity. […] Next a series of thirty STIP3-1 variants were designed, guided by the aforementioned alanine scan and a previous report that the central α-helical core of the S. aureus δ-toxin could be converted into AMP through the inclusion of additional lysine residues^39. The collection included ten members with single substitutions relative to STIP3-1 and others that incorporated a number of changes that were designed to increase overall and local cationic charge as well as hydrophobic character (Table 5). Each of the STIPs was screened, including STIP3-1 to STIP-31, for antibiotic activity against a methicillin-sensitive S. aureus test organism and a panel of 7 MRSA strains defined by distinct SCCmec genotypes (FIG. 2; ATCC MP-2).
Determination of minimum inhibitory concentrations. The MICs were measured for bioactive peptides identified from the initial screen. For bacterial studies, cation-adjusted Mueller Hinton (MH) broth was used as the growth medium whereas YPD was used for C. albicans. Bacterial cultures were diluted to a OD value of 6×10^−4 in MH broth and a 180 μl volume was mixed with 20 μl of peptide arrayed as 2-fold dilution series in a 96-well plate. For the positive control, 20 μl of sterile water was used. Plates were incubated as standing cultures overnight at 37° C. The lowest peptide concentration that resulted no observed microbial growth after an overnight treatment was defined as the MIC.

[5] = test system: Kodamae ohmeri AR 396; assay: MIC, YPD broth, CDC and FDA AR Candida isolate panel; type: cell-based; conditions: Table 9 below the line: only 200 or 100 μg/mL tested; values reported as 100 are ≤100 μg/mL
How it was run: (§2)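 Static overnight growth at 37° C of yeast (optical density […]) challenged with doubling peptide dilutions; sterile water served as the no-peptide control.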

[6] = test system: Candida krusei AR 397; assay: as above; type: cell-based; conditions: Table 9 below the line: only 200 or 100 μg/mL tested; values reported as 100 are ≤100 μg/mL
How it was run: as §2

[7] = test system: Candida duobushaemulonii AR 392; assay: as above; type: cell-based; conditions: Table 9 below the line: only 200 or 100 μg/mL tested; values reported as 100 are ≤100 μg/mL
How it was run: as §2

[8] = test system: Candida duobushaemulonii AR 394; assay: as above; type: cell-based; conditions: Table 9 below the line: only 200 or 100 μg/mL tested; values reported as 100 are ≤100 μg/mL
How it was run: as §2

[9] = test system: Saccharomyces cerevisiae AR 400; assay: as above; type: cell-based; conditions: Table 9 below the line: only 200 or 100 μg/mL tested; values reported as 100 are ≤100 μg/mL
How it was run: as §2

[10] = test system: Candida duobushaemulonii AR 391; assay: as above; type: cell-based; conditions: Table 9 below the line: only 200 or 100 μg/mL tested; values reported as 100 are ≤100 μg/mL
How it was run: as §2

[11] = test system: Saccharomyces cerevisiae AR 399; assay: as above; type: cell-based; conditions: Table 9 below the line: only 200 or 100 μg/mL tested; values reported as 100 are ≤100 μg/mL
How it was run: as §2

[12] = test system: Candida lusitaniae AR 398; assay: as above; type: cell-based; conditions: Table 9 below the line: only 200 or 100 μg/mL tested; values reported as 100 are ≤100 μg/mL
How it was run: as §2

[13] = test system: Candida haemulonii AR 395; assay: as above; type: cell-based; conditions: Table 9 below the line: only 200 or 100 μg/mL tested; values reported as 100 are ≤100 μg/mL
How it was run: as §2

[14] = test system: Candida haemulonii AR 393; assay: as above; type: cell-based; conditions: Table 9 below the line: only 200 or 100 μg/mL tested; values reported as 100 are ≤100 μg/mL
How it was run: as §2

[15] = test system: C. albicans Y537; assay: MIC, YPD broth; type: cell-based, Candida albicans; conditions: Table 8
[16] = test system: C. albicans MYA-2876; assay: MIC, YPD broth; type: cell-based, Candida albicans; conditions: Table 8
How it was run: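 Minimum inhibitory concentrations against Candida albicans were determined in YPD broth (10 g/L yeast extract, 20 g/L peptone, 20 g/L dextrose) using peptides of 95% purity. A 180 μl volume of diluted yeast was combined with 20 μl of peptide in a 2-fold dilution series in 96-well plates, with sterile water as control, then incubated standing overnight at 37° C.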

[17] = test system: S. aureus ATCC BAA-42 (MRSA SCCmec type VI); assay: MIC, broth dilution; type: cell-based, Staphylococcus aureus; conditions: Table 5; STIP3 variants, highest concentration 100 μg/mL
How it was run: as §1

[18] = test system: S. aureus ATCC BAA-1683 (MRSA SCCmec type IV); assay: MIC, broth dilution; type: cell-based, Staphylococcus aureus; conditions: Table 5; STIP3 variants, highest concentration 100 μg/mL
How it was run: as §1

[19] = test system: S. aureus ATCC BAA-2313 (MRSA SCCmec type XI); assay: MIC, broth dilution; type: cell-based, Staphylococcus aureus; conditions: Table 5; STIP3 variants, highest concentration 100 μg/mL
How it was run: as §1

[20] = test system: S. aureus ATCC BAA-41 (MRSA SCCmec type II); assay: MIC, broth dilution; type: cell-based, Staphylococcus aureus; conditions: Table 5; STIP3 variants, highest concentration 100 μg/mL
How it was run: as §1

[21] = test system: S. aureus ATCC BAA-2094 (MRSA SCCmec type V); assay: MIC, broth dilution; type: cell-based, Staphylococcus aureus; conditions: Table 5; STIP3 variants, highest concentration 100 μg/mL
How it was run: as §1

[22] = test system: S. aureus ATCC BAA-44 (MRSA SCCmec type I); assay: MIC, broth dilution; type: cell-based, Staphylococcus aureus; conditions: Table 5; STIP3 variants, highest concentration 100 μg/mL
How it was run: as §1

[23] = test system: Mannheimia haemolytica ATCC 33393; assay: MIC, broth dilution; type: cell-based; conditions: Table 11; highest concentration 25 μg/mL
How it was run: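 Peptides (95% purity) in 2-fold dilution series were mixed with M. haemolytica diluted to OD 6×10^−4 in cation-adjusted Mueller Hinton broth and incubated standing overnight at 37 °C. MIC was the lowest concentration with no visible growth.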

Substance | MIC S. aureus ATCC 33592 (III) [2] | MIC S. aureus ATCC 29213 [3] | MIC (μg/mL) Kodamae ohmeri AR 396 [5] | MIC (μg/mL) Candida krusei AR 397 [6] | MIC (μg/mL) Candida duobushaemulonii AR 392 [7] | MIC (μg/mL) Candida duobushaemulonii AR 394 [8] | MIC (μg/mL) Saccharomyces cerevisiae AR 400 [9] | MIC (μg/mL) Candida duobushaemulonii AR 391 [10] | MIC (μg/mL) Saccharomyces cerevisiae AR 399 [11] | MIC (μg/mL) Candida lusitaniae AR 398 [12] | MIC (μg/mL) Candida haemulonii AR 395 [13] | MIC (μg/mL) Candida haemulonii AR 393 [14] | MIC C. albicans Y537 [15] | MIC C. albicans MYA-2876 [16] | MIC S. aureus ATCC BAA 42 (VI) [17] | MIC S. aureus ATCC BAA 1683 (IV) [18] | MIC S. aureus ATCC BAA 2313 (XI) [19] | MIC S. aureus ATCC BAA 41 (II) [20] | MIC S. aureus ATCC BAA 2094 (V) [21] | MIC S. aureus ATCC BAA 44 (I) [22] | also measured
TVGGLVKWILKTVKKFA-NH2 [STIP3-29-D3] | > (no inhibition was observed at the highest concentration of peptide tested: 100 μg/mL for the STIP3 variants) | > (no inhibition was observed at the highest concentration of peptide tested: 100 μg/mL for the STIP3 variants) |  |  |  |  |  |  |  |  |  |  |  |  |  |  |  |  |  |  | α helicity (%) [1]: 32%; fold increase of MIC relative to STIP3-29 [4]: greater than 16 fold
TVKVLVKWILKVVAKFA [STIP3-26, TVKVLVKWILKVVAKFA] | > (no inhibition was observed at the highest concentration of peptide tested: 100 μg/mL for the STIP3 variants) | > (no inhibition was observed at the highest concentration of peptide tested: 100 μg/mL for the STIP3 variants) | > (values below the line were determined using two concentrations of peptide 200 or 100 μg/mL) | > (values below the line were determined using two concentrations of peptide 200 or 100 μg/mL) | > (values below the line were determined using two concentrations of peptide 200 or 100 μg/mL) | > (values below the line were determined using two concentrations of peptide 200 or 100 μg/mL) | ≤ 100 µg/mL | > (values below the line were determined using two concentrations of peptide 200 or 100 μg/mL) | ≤ 100 µg/mL | ≤ 100 µg/mL | > (values below the line were determined using two concentrations of peptide 200 or 100 μg/mL) | > (values below the line were determined using two concentrations of peptide 200 or 100 μg/mL) | > (> symbol indicates that no inhibition was observed at the highest concentration of peptide tested: 100 μg/mL) | > (> symbol indicates that no inhibition was observed at the highest concentration of peptide tested: 100 μg/mL) | > (no inhibition was observed at the highest concentration of peptide tested: 100 μg/mL for the STIP3 variants) | > (no inhibition was observed at the highest concentration of peptide tested: 100 μg/mL for the STIP3 variants) | > (no inhibition was observed at the highest concentration of peptide tested: 100 μg/mL for the STIP3 variants) | > (no inhibition was observed at the highest concentration of peptide tested: 100 μg/mL for the STIP3 variants) | > (no inhibition was observed at the highest concentration of peptide tested: 100 μg/mL for the STIP3 variants) | > (no inhibition was observed at the highest concentration of peptide tested: 100 μg/mL for the STIP3 variants) | MIC (μg/mL) M. haemolytica [23]: > (> symbol indicates that no inhibition was observed at the highest concentration of peptide tested: 25 μg/mL); inhibition of S. aureus [4]: incapable of inhibiting S. aureus
TVKFLVKWILKWVAKFA [STIP3-25, TVKFLVKWILKWVAKFA] | > (no inhibition was observed at the highest concentration of peptide tested: 100 μg/mL for the STIP3 variants) | > (no inhibition was observed at the highest concentration of peptide tested: 100 μg/mL for the STIP3 variants) | > (values below the line were determined using two concentrations of peptide 200 or 100 μg/mL) | > (values below the line were determined using two concentrations of peptide 200 or 100 μg/mL) | > (values below the line were determined using two concentrations of peptide 200 or 100 μg/mL) | > (values below the line were determined using two concentrations of peptide 200 or 100 μg/mL) | ≤ 100 µg/mL | > (values below the line were determined using two concentrations of peptide 200 or 100 μg/mL) | ≤ 100 µg/mL | ≤ 100 µg/mL | > (values below the line were determined using two concentrations of peptide 200 or 100 μg/mL) | > (values below the line were determined using two concentrations of peptide 200 or 100 μg/mL) | 25 µg/mL | 25 µg/mL | > (no inhibition was observed at the highest concentration of peptide tested: 100 μg/mL for the STIP3 variants) | > (no inhibition was observed at the highest concentration of peptide tested: 100 μg/mL for the STIP3 variants) | > (no inhibition was observed at the highest concentration of peptide tested: 100 μg/mL for the STIP3 variants) | > (no inhibition was observed at the highest concentration of peptide tested: 100 μg/mL for the STIP3 variants) | > (no inhibition was observed at the highest concentration of peptide tested: 100 μg/mL for the STIP3 variants) | > (no inhibition was observed at the highest concentration of peptide tested: 100 μg/mL for the STIP3 variants) | MIC (μg/mL) M. haemolytica [23]: > (> symbol indicates that no inhibition was observed at the highest concentration of peptide tested: 25 μg/mL); inhibition of S. aureus [4]: incapable of inhibiting S. aureus
